Paper PMC11190964 (Journal of medicinal chemistry, 2023)

What was measured:
[1] = test system: MM.1S cells; test: Proliferation / growth rate inhibition assay; format: cell-based; details: for antiproliferative activity / toxicity, single agent: comparator inhibitors, single-agent treatment
[2] = target: T1, JNK2 (Homo sapiens, UniProt P45984); test: Pull-down competition assay with biotin-JNK-IN-7, JNK2; format: cell-based; details: MM.1S cells, 6 h; both JNK1 and JNK2
Target sequence in this assay (P45984 whole entry): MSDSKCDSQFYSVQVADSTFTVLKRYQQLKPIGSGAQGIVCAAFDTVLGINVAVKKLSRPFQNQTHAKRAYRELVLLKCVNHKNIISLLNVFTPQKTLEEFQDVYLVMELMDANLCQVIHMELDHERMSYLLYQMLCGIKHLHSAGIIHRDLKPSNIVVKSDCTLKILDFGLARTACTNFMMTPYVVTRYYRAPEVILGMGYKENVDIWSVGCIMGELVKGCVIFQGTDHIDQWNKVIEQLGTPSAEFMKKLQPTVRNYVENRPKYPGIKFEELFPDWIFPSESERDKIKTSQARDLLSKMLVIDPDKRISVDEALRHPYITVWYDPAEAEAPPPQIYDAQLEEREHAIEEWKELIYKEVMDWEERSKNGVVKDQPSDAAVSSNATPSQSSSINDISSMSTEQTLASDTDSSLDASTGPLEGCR

[3] = target: T1, JNK2; test: PhosphoSens kinetic assay; format: biochemical; details: JNK1 and JNK2
Target sequence in this assay (P45984 whole entry): as above

[4] = test system: MM.1S cells; test: Apoptosis; format: cell-based; details: PARP cleavage, caspase 3 cleavage, Annexin V/PI staining
[5] = test system: Bortezomib-resistant ANBL6 cells; test: Antiproliferative assay, Bortezomib-resistant ANBL6; format: cell-based; details: parental ANBL6 and Bortezomib-resistant ANBL6 cells
[6] = test system: panel of more than 400 kinases; test: Kinome-wide selectivity panel; details: strong binding to EGFR, CK1, DDR1, CDK7, Aurora A and B
[7] = target: T1, JNK2; test: Z′-Lyte fixed time point kinase assay, JNK2; details: fixed time point biochemical kinase assay
Target sequence in this assay (P45984 whole entry): as above

[8] = target: T1, JNK2; test: Mass labeling of recombinant JNK2 protein; format: binding; details: room temperature, 60 min incubation; trypsin digest, CE-MS/MS
Target sequence in this assay (P45984 4-364): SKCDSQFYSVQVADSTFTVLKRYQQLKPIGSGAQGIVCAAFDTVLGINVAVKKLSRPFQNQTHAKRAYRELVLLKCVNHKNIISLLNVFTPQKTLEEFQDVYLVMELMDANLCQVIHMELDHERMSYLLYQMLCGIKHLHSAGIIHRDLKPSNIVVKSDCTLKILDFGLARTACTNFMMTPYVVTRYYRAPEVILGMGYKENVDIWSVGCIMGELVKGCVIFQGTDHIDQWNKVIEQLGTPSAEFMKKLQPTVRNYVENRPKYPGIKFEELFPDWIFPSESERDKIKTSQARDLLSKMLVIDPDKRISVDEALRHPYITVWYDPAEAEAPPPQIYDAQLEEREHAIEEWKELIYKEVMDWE

[9] = target: PIKFYVE (Homo sapiens, UniProt Q9Y2I7); test: PIKFYVE NanoBRET target engagement assay; format: cell-based; details: transfected HEK293T cells, 3 h
[10] = test system: MDA-MB-231 cells; test: Vacuole formation; format: cell-based
[11] = test system: HAP1 parental cells and JNK2-knockout cell lines; test: Antiproliferative activity in HAP1 parental and JNK2-knockout cells; format: cell-based
[12] = target: JNK1 (Homo sapiens, UniProt P45983); test: JNK1 NanoBRET target engagement assay; format: cell-based; details: HEK293T cells; compared with JNK-IN-8
Chain of JNK1 (P45983 whole entry): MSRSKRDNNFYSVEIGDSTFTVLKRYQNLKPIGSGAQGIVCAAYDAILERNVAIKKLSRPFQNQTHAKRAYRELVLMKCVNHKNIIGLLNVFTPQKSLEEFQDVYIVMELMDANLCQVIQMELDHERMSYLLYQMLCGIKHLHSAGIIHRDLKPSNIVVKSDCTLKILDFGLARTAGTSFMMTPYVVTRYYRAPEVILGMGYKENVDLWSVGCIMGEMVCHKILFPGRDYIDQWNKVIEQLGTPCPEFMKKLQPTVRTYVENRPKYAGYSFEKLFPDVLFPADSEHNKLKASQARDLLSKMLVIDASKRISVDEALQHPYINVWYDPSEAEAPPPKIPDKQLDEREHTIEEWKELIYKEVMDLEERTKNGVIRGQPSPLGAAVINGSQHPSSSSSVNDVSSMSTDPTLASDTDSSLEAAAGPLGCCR

Chain of PIKFYVE (Q9Y2I7 whole entry): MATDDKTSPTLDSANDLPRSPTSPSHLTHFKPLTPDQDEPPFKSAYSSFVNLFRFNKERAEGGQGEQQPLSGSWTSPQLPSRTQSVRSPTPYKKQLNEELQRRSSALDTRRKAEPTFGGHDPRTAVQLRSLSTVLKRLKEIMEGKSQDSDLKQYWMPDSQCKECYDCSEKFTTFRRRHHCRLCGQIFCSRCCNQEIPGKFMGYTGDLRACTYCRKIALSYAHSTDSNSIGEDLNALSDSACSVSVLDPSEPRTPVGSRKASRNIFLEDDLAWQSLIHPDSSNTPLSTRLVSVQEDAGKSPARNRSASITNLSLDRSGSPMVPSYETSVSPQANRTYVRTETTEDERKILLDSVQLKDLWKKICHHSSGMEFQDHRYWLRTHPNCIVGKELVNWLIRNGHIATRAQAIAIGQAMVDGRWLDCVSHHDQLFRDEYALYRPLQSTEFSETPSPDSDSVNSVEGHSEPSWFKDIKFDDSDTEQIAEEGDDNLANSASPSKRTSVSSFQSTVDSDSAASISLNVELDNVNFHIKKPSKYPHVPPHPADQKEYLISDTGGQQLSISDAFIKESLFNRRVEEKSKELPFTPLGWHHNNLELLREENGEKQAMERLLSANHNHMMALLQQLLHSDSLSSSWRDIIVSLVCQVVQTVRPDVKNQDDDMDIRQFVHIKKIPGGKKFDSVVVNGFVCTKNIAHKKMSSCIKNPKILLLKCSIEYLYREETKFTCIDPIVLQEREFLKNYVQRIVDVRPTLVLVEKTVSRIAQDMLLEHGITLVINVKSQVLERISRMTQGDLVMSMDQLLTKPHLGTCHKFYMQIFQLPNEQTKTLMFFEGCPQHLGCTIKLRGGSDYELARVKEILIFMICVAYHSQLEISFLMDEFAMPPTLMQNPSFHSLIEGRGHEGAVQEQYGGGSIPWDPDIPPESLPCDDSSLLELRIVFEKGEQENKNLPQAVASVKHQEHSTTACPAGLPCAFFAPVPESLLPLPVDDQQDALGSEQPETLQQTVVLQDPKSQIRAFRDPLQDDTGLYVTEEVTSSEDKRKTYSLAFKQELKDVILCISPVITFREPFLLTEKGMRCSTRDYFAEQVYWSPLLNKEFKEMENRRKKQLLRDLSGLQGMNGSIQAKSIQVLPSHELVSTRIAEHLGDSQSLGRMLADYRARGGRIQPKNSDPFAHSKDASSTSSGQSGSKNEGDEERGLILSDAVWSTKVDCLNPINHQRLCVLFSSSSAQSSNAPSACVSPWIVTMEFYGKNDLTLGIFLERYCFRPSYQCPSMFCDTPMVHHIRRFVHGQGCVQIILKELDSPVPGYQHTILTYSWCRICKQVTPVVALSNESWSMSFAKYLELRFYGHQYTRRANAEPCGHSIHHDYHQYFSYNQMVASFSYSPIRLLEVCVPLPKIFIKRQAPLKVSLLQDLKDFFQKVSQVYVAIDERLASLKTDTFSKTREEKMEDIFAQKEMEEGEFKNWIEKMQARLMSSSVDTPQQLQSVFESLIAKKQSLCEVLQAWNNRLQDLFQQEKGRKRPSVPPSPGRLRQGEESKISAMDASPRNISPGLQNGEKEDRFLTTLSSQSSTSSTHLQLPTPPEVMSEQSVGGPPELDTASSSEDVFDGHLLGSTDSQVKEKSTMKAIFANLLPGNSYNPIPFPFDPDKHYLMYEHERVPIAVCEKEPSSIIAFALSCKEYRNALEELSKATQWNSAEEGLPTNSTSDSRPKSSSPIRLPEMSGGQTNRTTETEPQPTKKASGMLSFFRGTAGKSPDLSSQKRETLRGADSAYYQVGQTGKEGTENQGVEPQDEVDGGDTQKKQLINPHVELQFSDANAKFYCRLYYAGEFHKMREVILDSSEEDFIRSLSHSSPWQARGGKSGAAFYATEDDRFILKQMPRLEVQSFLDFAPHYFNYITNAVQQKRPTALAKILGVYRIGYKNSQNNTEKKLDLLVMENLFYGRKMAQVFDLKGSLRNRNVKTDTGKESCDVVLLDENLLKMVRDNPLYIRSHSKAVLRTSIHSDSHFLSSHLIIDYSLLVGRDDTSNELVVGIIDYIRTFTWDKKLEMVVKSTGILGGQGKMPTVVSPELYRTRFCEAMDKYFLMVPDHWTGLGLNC

Structure (SMILES): O[C@H]1CC[C@H](Nc2ncc3nc(Nc4c(F)cc(F)cc4F)n([C@H]4CCOC4)c3n2)CC1 [CC930]
- protection from YL5084-mediated cell killing ([1]; 10 μM pretreatment, MM.1S cells): did not protect
- antiproliferative activity / toxicity, single agent [1]: did not exhibit antiproliferative activity even at micromolar concentrations

Structure (SMILES): Cc1cc(NC(=O)c2cccc(NC(=O)/C=C/CN(C)C)c2)ccc1Nc1nccc(-c2cccnc2)n1 [JNK-IN-8]
- engagement of JNK1 and JNK2 in pull down [2]: engaged both JNK1 and JNK2 at the same concentration
- potency JNK2 versus JNK1 in kinetic assay [3]: almost equipotent against both
- induction of apoptosis [4]: failed to induce apoptotic cell death to the same level
- antiproliferative effect in ANBL6 cells [5]: minimal effect

Structure (SMILES): CN(C)C/C=C/C(=O)Nc1ccc(C(=O)Nc2cccc(Nc3nccc(-c4c(-c5ccccc5)nn5ccccc45)n3)c2)cc1 [THZ-3–60-1]
- kinome-wide selectivity [6]: poor kinome-wide selectivity
- selectivity JNK2 versus JNK1 [7]: exhibited selectivity for JNK2 versus JNK1

Structure (SMILES): O=c1ncn2nc(Sc3ccc(F)cc3F)ccc2c1-c1c(Cl)cccc1Cl [VX745]
- antiproliferative activity / toxicity, single agent [1]: not toxic

Structure (SMILES): CN(C)C/C=C/C(=O)Nc1ccc(C(=O)N2CC[C@H](Nc3nccc(-c4c(-c5ccccc5)nn5ccccc45)n3)C2)cc1 [YL2056, (S,E)-4-(Dimethylamino)-N-[4-(3-{[4-(2-phenylpyrazolo[1,5-a]pyridin-3-yl)pyrimidin-2-yl]amino}pyrrolidine-1-carbonyl)phenyl]but-2-enamide]
- covalent modification site on JNK2 [8]: exclusive modification on JNK2 Cys116
- PIKFYVE binding in NanoBRET [9]: binds to PIKFYVE more strongly than its reversible counterpart
- vacuole formation ([10]; MDA-MB-231, phenotype of PIKFYVE inhibition): induced

Structure (SMILES): C[C@H]1CN(C(=O)c2ccc(NC(=O)/C=C/CN(C)C)cc2)C[C@H]1Nc1nccc(-c2c(-c3ccccc3)nn3ccccc23)n1 [YL5084, (E)-4-(Dimethylamino)-N-[4-((3S,4S)-3-methyl-4-{[4-(2-phenylpyrazolo[1,5-a]pyridin-3-yl)pyrimidin-2-yl]amino}pyrrolidine-1-carbonyl)phenyl]but-2-enamide]
- antiproliferative activity, parental vs JNK2-knockout [11]: equipotent antiproliferative activity
- induction of apoptosis [4]: induced apoptosis
- JNK1 engagement in NanoBRET [12]: significantly less engagement of JNK1
- GR50 (antiproliferative) ([1]; multiple myeloma (MM) cell lines, 72 h): 200 to 300 nM
- vacuole formation ([10]; up to a concentration of 4 μM): did not induce vacuole formation

Structure (SMILES): C[C@H]1CN(C(=O)c2ccc(NC(=O)CCCN(C)C)cc2)C[C@H]1Nc1nccc(-c2c(-c3ccccc3)nn3ccccc23)n1 [YL5084R, 4-(Dimethylamino)-N-[4-((3S,4S)-3-methyl-4-{[4-(2-phenylpyrazolo[1,5-a]pyridin-3-yl)pyrimidin-2-yl]amino}pyrrolidine-1-carbonyl)phenyl]butanamide]
- fold weaker antiproliferative activity than YL5084 ([1]; multiple myeloma (MM) cell lines, GR50): 15 fold
